Source: PMC9780942, “Antimicrobial Activity and Immunomodulatory Properties of Acidocin A, the Pediocin-like Bacteriocin with the Non-Canonical Structure” (Membranes, 2022)
Positions of bridges follow the written chain, without caps; N, C: chain ends. Residues, ends and D or L forms follow the SMILES beside them. No end group written: not given here.

Columns and labels:
L. monocytogenes EGD = type: cell-based, Listeria monocytogenes; details: 24 h
Procedure: (§1) Antibacterial activity of recombinant bacteriocins against a number of Gram-positive and Gram-negative bacteria (Table S2) was determined by the method of two-fold serial dilutions in a liquid medium. Two-fold serial dilutions of bacteriocins were prepared in sterile 96-well flat-bottom polystyrene microplates (Eppendorf, Hamburg, Germany) (Cat. No. 0030730.011) in a volume of 50 µL of sterile 0.1% bovine serum albumin (BSA) (SERVA Electrophoresis GmbH, Heidelberg, Germany) to prevent non-specific sorption of peptides to the surface of the plate wells [23]. Mid-log phase bacterial cultures were diluted with the 2x Mueller-Hinton broth (MHB) (Sigma-Aldrich, St. Louis, MO, USA) to a final cell concentration of 10^6 colony forming units (CFU) per mL. To determine the activity of bacteriocins against Listeria and Enterococci, 3% tryptic soy broth (TSB) (Merck-Millipore, Burlington, MA, USA) was used instead of MHB. Aliquots of 50 μL of diluted bacterial suspensions were added to each well of the plate, which was then incubated at 37 °C and 950 rpm for 24 h using thermostatable plate shaker PST-60HL-4 (Biosan, Riga, Latvia). As a negative control, 50 µL of the sterile growth medium (2xMHB or 6% TSB) was added to the wells containing 50 µL of 0.1% BSA. The values of the minimum inhibitory concentrations (MIC) were determined as the minimum concentration of the peptide, at which there was no visible growth of bacterial culture. Incubation for 2 h with 20 µg/mL chromogenic substrate resazurin (Sigma-Aldrich, St. Louis, MO, USA) was used to detect viable bacterial cells if they were difficult to visually detect. To study the effect of inorganic salts on the antimicrobial activity of bacteriocins, antibacterial activity assay was carried out in MHB medium supplemented with 0.9% NaCl.

L. lactis MK43 = assay: Antibacterial activity assay (MIC), two-fold serial dilutions in liquid medium; type: cell-based; details: for Minimum Inhibitory Concentration: MHB, 0.1% BSA, 37 °C, 24 h, no visible growth; for Minimum inhibitory concentration in the presence of NaCl: MHB supplemented with 0.9% NaCl
Procedure: as §1

A. baumannii XDR CI 2675 = type: cell-based; details: XDR CI 2675, 24 h
Procedure: as §1

B. licheniformis B-511 = type: cell-based; details: 24 h
Procedure: as §1

B. subtilis B-886 = type: cell-based; details: B-886, 24 h
Procedure: as §1

E. coli ATCC 25922 = type: cell-based; details: ATCC 25922, 24 h
Procedure: as §1

E. coli ML-35p = type: cell-based; details: 24 h
Procedure: as §1

E. coli SQ110 = type: cell-based; details: SQ110, 24 h
Procedure: as §1

E. coli XDR CI 1057 = type: cell-based; details: XDR CI 1057, 24 h
Procedure: as §1

L. lactis MK66 = type: cell-based; details: MK66, 24 h
Procedure: as §1

M. luteus Ac-2229 = type: cell-based; details: Ac-2229, 24 h
Procedure: as §1

M. phlei Ac-1221 = type: cell-based; details: 24 h
Procedure: as §1

[1] = tested on: P. aeruginosa MDR CI 1995; type: cell-based; details: MDR CI 1995, 24 h
Procedure: as §1

S. aureus 209P = type: cell-based; details: 24 h
Procedure: as §1

| Molecule | Minimum Inhibitory Concentration (L. monocytogenes EGD) | Minimum Inhibitory Concentration (L. lactis MK43) | Minimum Inhibitory Concentration (A. baumannii XDR CI 2675) | Minimum Inhibitory Concentration (B. licheniformis B-511) | Minimum Inhibitory Concentration (B. subtilis B-886) | Minimum Inhibitory Concentration (E. coli ATCC 25922) | Minimum Inhibitory Concentration (E. coli ML-35p) | Minimum Inhibitory Concentration (E. coli SQ110) | Minimum Inhibitory Concentration (E. coli XDR CI 1057) | Minimum Inhibitory Concentration (L. lactis MK66) | Minimum Inhibitory Concentration (M. luteus Ac-2229) | Minimum Inhibitory Concentration (M. phlei Ac-1221) | Minimum Inhibitory Concentration [1] | Minimum Inhibitory Concentration (S. aureus 209P) | Minimum inhibitory concentration in the presence of NaCl (L. lactis MK43) | Minimum inhibitory concentration in the presence of NaCl (B. licheniformis B-511) | Minimum inhibitory concentration in the presence of NaCl (B. subtilis B-886) | Minimum inhibitory concentration in the presence of NaCl (E. coli ML-35p) | Minimum inhibitory concentration in the presence of NaCl (E. coli SQ110) | Minimum inhibitory concentration in the presence of NaCl (L. lactis MK66) |
| --- | --- | --- | --- | --- | --- | --- | --- | --- | --- | --- | --- | --- | --- | --- | --- | --- | --- | --- | --- | --- |
| KTYYGNGVHCTKKSLWGKVRLKNVIPGTLCRKQSLPIKQDLKILLGWATGAFGKTFH (cysteines drawn unpaired) [AcdA(dT) (DTT reduced)] | >32 µM | 2 µM | 8 µM | 4 µM | 4 µM | 8 µM | 4 µM | 4 µM | 16 µM | 1 µM | 16 µM | 4 µM | >32 µM | 16 µM | – | – | – | – | – | – |
| KTYYGNGVHCTKKSLWGKVRLKNVIPGTLCRKQSLPIKQDLKILLGWATGAFGKTFH (disulfide 10-30) [AcdA(dT)] | >128 µM | 1 µM | 4 µM | 2 µM | 2 µM | 4 µM | 2 µM | 1 µM | 8 µM | 0.5 µM | 8 µM | 2 µM | 16 µM | 8 µM | > 32 µM | > 32 µM | > 32 µM | 16 µM | 8 µM | 32 µM |
| KTYYGTNAVHCTKKSLWGKVRLKNVIPGTLCRKQSLPIKQDLKILLGWATGAFGKTFH (disulfide 11-31) [AcdA(G8A)] | >32 µM | 4 µM | 8 µM | 8 µM | 8 µM | 16 µM | 8 µM | 4 µM | 8 µM | 2 µM | 16 µM | 2 µM | 16 µM | 8 µM | > 32 µM | > 32 µM | > 32 µM | 16 µM | 32 µM | > 32 µM |
| HCTKKSLWGKVRLKNVIPGTLCRKQSLPIKQDLKILLGWATGAFGKTFH (disulfide 2-22) [AcdA(d9)] | >32 µM | 8 µM | 4 µM | 8 µM | 8 µM | 16 µM | 4 µM | 8 µM | 8 µM | 2 µM | 16 µM | 4 µM | 16 µM | 16 µM | > 32 µM | > 32 µM | > 32 µM | 16 µM | 32 µM | > 32 µM |
| KTYYGTNGVHCTKKSLWGKVRLKNVIPGTLCRKQSLPIKQDLKILLGWATGAFGKTFH (cysteines drawn unpaired) [AcdA (DTT reduced)] | >32 µM | 2 µM | 8 µM | 4 µM | 4 µM | 8 µM | 4 µM | 4 µM | 16 µM | 1 µM | 16 µM | 4 µM | >32 µM | 16 µM | – | – | – | – | – | – |
| CC[C@H](C)[C@H](NC(=O)[C@H](Cc1ccc(O)cc1)NC(=O)[C@@H](NC(=O)[C@@H](NC(=O)[C@H](CC(N)=O)NC(=O)[C@H](CCC(N)=O)NC(=O)[C@H](CC(=O)O)NC(=O)[C@H](Cc1ccc(O)cc1)NC(=O)[C@H](CCCCN)NC(=O)[C@@H](NC(=O)[C@H](CC(N)=O)NC(=O)[C@H](CCCCN)NC(=O)[C@H](CC(C)C)NC(=O)[C@H](CCCNC(=N)N)NC(=O)[C@@H](NC(=O)[C@H](CCCCN)NC(=O)CNC(=O)[C@H](Cc1c[nH]c2ccccc12)NC(=O)[C@H](CC(C)C)NC(=O)[C@H](CO)NC(=O)[C@H](CC(N)=O)NC(=O)[C@H](CCCCN)NC(=O)[C@@H](NC(=O)[C@H](CS)NC(=O)[C@H](Cc1c[nH]cn1)NC(=O)[C@@H](NC(=O)CNC(=O)[C@H](CC(N)=O)NC(=O)[C@@H](NC(=O)CNC(=O)[C@H](Cc1ccc(O)cc1)NC(=O)[C@H](Cc1ccc(O)cc1)NC(=O)[C@@H](NC(=O)[C@@H](N)CCCCN)[C@@H](C)O)[C@@H](C)O)C(C)C)[C@@H](C)O)C(C)C)C(C)C)[C@@H](C)O)[C@@H](C)O)C(=O)NCC(=O)N[C@@H](CCCNC(=N)N)C(=O)N[C@@H](CC(C)C)C(=O)N[C@@H](CCC(N)=O)C(=O)N[C@@H](CC(=O)O)C(=O)N[C@H](C(=O)N[C@@H](CC(C)C)C(=O)N[C@@H](CC(C)C)C(=O)NCC(=O)N[C@@H](Cc1c[nH]c2ccccc12)C(=O)N[C@@H](C)C(=O)N[C@H](C(=O)NCC(=O)N[C@@H](C)C(=O)N[C@@H](Cc1ccccc1)C(=O)NCC(=O)N[C@@H](CCCCN)C(=O)N[C@H](C(=O)N[C@@H](Cc1ccccc1)C(=O)N[C@@H](Cc1c[nH]cn1)C(=O)O)[C@@H](C)O)[C@@H](C)O)[C@@H](C)CC [OR-7(VI) (DTT reduced)] (H-KTYYGTNGVHCTKNSLWGKVRLKNVKYDQNTTYIGRLQDILLGWATGAFGKTFH-OH; N-terminus and C-terminus assumed) | >32 µM | >32 µM | >32 µM | 8 µM | 16 µM | >32 µM | >32 µM | >32 µM | >32 µM | 4 µM | >32 µM | 32 µM | >32 µM | >32 µM | – | – | – | – | – | – |
| KTYVGNTGYHCTKKSLWGKVRLKNVIPGTLCRKQSLPIKQDLKILLGWATGAFGKTFH (disulfide 11-31) [AcdA(x4)] | >32 µM | 4 µM | 4 µM | 4 µM | 8 µM | 16 µM | 8 µM | 8 µM | 8 µM | 2 µM | 8 µM | 4 µM | 16 µM | 16 µM | > 32 µM | > 32 µM | > 32 µM | 16 µM | 32 µM | > 32 µM |
